# Measurements: patent US8952024B2, “Herbicidal pyrimidone derivatives” (E I du Pont de Nemours and Company, priority 2009, dated 2015)
# How the values were obtained:
# Assay in all cases: Test B pre-/postemergence plant response
# Type in all cases: in vivo
# wild oat (Avena fatua) = conditions: for Oat, Wild plant response rating (0 to 100 scale): 62 g ai/ha, 0 is no effect
# Method in brief: (§1)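 Seeds were sown in loam soil/sand blend and treated preemergence with compound in non-phytotoxic solvent mixture containing surfactant; postemergence sprays, same formulation, went onto plants 2 to 18 cm (1- to 4-leaf stage) in peat-based planting medium. Greenhouse 13 to 15 days, then visual rating versus untreated controls, 0 (no effect) to 100 (complete control).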
# [1] = test system: bermudagrass (Cynodon dactylon); conditions: for Bermudagrass plant response rating (0 to 100 scale): 62 g ai/ha, 0 is no effect
# Method in brief: as §1
# [2] = test system: Italian ryegrass (Lolium multiflorum); conditions: for Ryegrass, Italian plant response rating (0 to 100 scale): 62 g ai/ha, 0 is no effect
# Method in brief: as §1
# [3] = test system: morningglory (Ipomoea coccinea); conditions: for Morningglory plant response rating (0 to 100 scale): 62 g ai/ha, 0 is no effect
# Method in brief: as §1
# [4] = test system: Surinam grass (Brachiaria decumbens); conditions: for Surinam Grass plant response rating (0 to 100 scale): 62 g ai/ha, 0 is no effect
# Method in brief: as §1
# [5] = test system: downy bromegrass (Bromus tectorum); conditions: for Bromegrass, Downy plant response rating (0 to 100 scale): 62 g ai/ha, 0 is no effect
# Method in brief: as §1
# [6] = test system: ragweed (common ragweed, Ambrosia elatior); conditions: for Ragweed plant response rating (0 to 100 scale): 62 g ai/ha, 0 is no effect
# Method in brief: as §1
# [7] = test system: cocklebur (Xanthium strumarium); conditions: for Cocklebur plant response rating (0 to 100 scale): 62 g ai/ha, 0 is no effect
# Method in brief: as §1
# [8] = test system: wheat (Triticum aestivum); conditions: for Wheat plant response rating (0 to 100 scale): 62 g ai/ha, 0 is no effect
# Method in brief: as §1
# [9] = test system: woolly cupgrass (Eriochloa villosa); conditions: for Cupgrass, Woolly plant response rating (0 to 100 scale): 62 g ai/ha, 0 is no effect
# Method in brief: as §1
# kochia (Kochia scoparia) = conditions: for Kochia plant response rating (0 to 100 scale): 62 g ai/ha, 0 is no effect
# Method in brief: as §1
# [10] = test system: blackgrass (Alopecurus myosuroides); conditions: for Blackgrass plant response rating (0 to 100 scale): 62 g ai/ha, 0 is no effect
# Method in brief: as §1
# [11] = test system: large crabgrass (Digitaria sanguinalis); conditions: for Crabgrass, Large plant response rating (0 to 100 scale): 62 g ai/ha, 0 is no effect
# Method in brief: as §1
# [12] = postemergence, 100 is complete control, 13 to 15 days
# [13] = Postemergence, 31 g ai/ha, 0 to 100 scale (0 no effect, 100 complete control)
# [14] = Postemergence, 125 g ai/ha, scale 0 to 100 (0 no effect, 100 complete control)
# [15] = Postemergence, 250 g ai/ha, scale 0 to 100 (0 no effect, 100 complete control), 13 to 15 days
# [16] = 31 g ai/ha, postemergence, scale 0 to 100, 0 is no effect, 100 is complete control
# [17] = Postemergence, 250 g ai/ha, scale 0 to 100 (0 no effect, 100 complete control)
# [18] = Postemergence, 125 g ai/ha, visual rating after 13 to 15 days, scale 0 (no effect) to 100 (complete control)
smiles,measurement,setting,value
COCCn1c(-c2cccc(Cl)c2)ncc(C(=O)C2=C(O)CCCC2=O)c1=O [Compound 147],"Oat, Wild plant response rating (0 to 100 scale)",wild oat (Avena fatua); [12],10
same,"Plant response rating, Oat, Wild",wild oat (Avena fatua); [13],5
same,"Plant response rating, Oat, Wild",wild oat (Avena fatua); [14],20
same,"Plant response rating, Oat, Wild",wild oat (Avena fatua); [15],45
same,Bermudagrass plant response rating (0 to 100 scale),[1]; [12],90
same,"Plant response rating, Bermudagrass",[1]; [13],75
same,"Plant response rating, Bermudagrass",[1]; [14],95
same,"Plant response rating, Bermudagrass",[1]; [15],98
same,"Ryegrass, Italian plant response rating (0 to 100 scale)",[2]; [12],5
same,"Plant response rating, Ryegrass, Italian",[2]; [13],5
same,"Plant response rating, Ryegrass, Italian",[2]; [14],30
same,"Plant response rating, Ryegrass, Italian",[2]; [15],40
same,Morningglory plant response rating (0 to 100 scale),[3]; [12],50
same,"Plant response rating, Morningglory",[3]; [13],50
same,"Plant response rating, Morningglory",[3]; [14],65
same,"Plant response rating, Morningglory",[3]; [15],100
same,Surinam Grass plant response rating (0 to 100 scale),[4]; [12],65
same,"Plant response rating, Surinam Grass",[4]; [13],50
same,"Plant response rating, Surinam Grass",[4]; [14],75
same,"Plant response rating, Surinam Grass",[4]; [15],75
same,"Bromegrass, Downy plant response rating (0 to 100 scale)",[5]; [12],5
same,"Plant response rating, Bromegrass, Downy",[5]; [13],0
same,"Plant response rating, Bromegrass, Downy",[5]; [14],5
same,"Plant response rating, Bromegrass, Downy",[5]; [15],10
same,Ragweed plant response rating (0 to 100 scale),[6]; [12],75
same,"Plant response rating, Ragweed",[6]; [13],20
same,"Plant response rating, Ragweed",[6]; [14],90
same,"Plant response rating, Ragweed",[6]; [15],98
same,Cocklebur plant response rating (0 to 100 scale),[7]; [12],75
same,"Plant response rating, Cocklebur",[7]; [13],50
same,"Plant response rating, Cocklebur",[7]; [14],90
same,"Plant response rating, Cocklebur",[7]; [15],100
same,Wheat plant response rating (0 to 100 scale),[8]; [12],5
same,"Plant response rating, Wheat",[8]; [13],0
same,"Plant response rating, Wheat",[8]; [14],5
same,"Plant response rating, Wheat",[8]; [15],10
same,"Cupgrass, Woolly plant response rating (0 to 100 scale)",[9]; [12],70
same,"Plant response rating, Cupgrass, Woolly",[9]; [13],65
same,"Plant response rating, Cupgrass, Woolly",[9]; [14],80
same,"Plant response rating, Cupgrass, Woolly",[9]; [15],80
same,Kochia plant response rating (0 to 100 scale),kochia (Kochia scoparia); [12],75
same,"Plant response rating, Kochia",kochia (Kochia scoparia); [13],40
same,"Plant response rating, Kochia",kochia (Kochia scoparia); [14],80
same,"Plant response rating, Kochia",kochia (Kochia scoparia); [15],100
same,Blackgrass plant response rating (0 to 100 scale),[10]; [12],40
same,"Plant response rating, Blackgrass",[10]; [13],10
same,"Plant response rating, Blackgrass",[10]; [14],45
same,"Plant response rating, Blackgrass",[10]; [15],55
same,"Crabgrass, Large plant response rating (0 to 100 scale)",[11]; [12],75
same,"Plant response rating, Crabgrass, Large",[11]; [13],60
same,"Plant response rating, Crabgrass, Large",[11]; [14],85
same,"Plant response rating, Crabgrass, Large",[11]; [15],90
CCCCn1c(-c2ccccc2)ncc(C(=O)C2=C(O)CCCC2=O)c1=O [Compound 86],"Plant response rating, Oat, Wild",wild oat (Avena fatua); [16],20
same,"Oat, Wild plant response rating (0 to 100 scale)",wild oat (Avena fatua); [12],50
same,"Plant response rating, Oat, Wild",wild oat (Avena fatua); [17],80
same,"Plant response rating, Bermudagrass",[1]; [16],85
same,Bermudagrass plant response rating (0 to 100 scale),[1]; [12],90
same,"Plant response rating, Bermudagrass",[1]; [18],95
same,"Plant response rating, Bermudagrass",[1]; [17],95
same,"Plant response rating, Ryegrass, Italian",[2]; [16],25
same,"Ryegrass, Italian plant response rating (0 to 100 scale)",[2]; [12],30
same,"Plant response rating, Ryegrass, Italian",[2]; [17],60
same,"Plant response rating, Morningglory",[3]; [16],70
same,Morningglory plant response rating (0 to 100 scale),[3]; [12],80
same,"Plant response rating, Morningglory",[3]; [17],100
same,"Plant response rating, Surinam Grass",[4]; [16],80
same,Surinam Grass plant response rating (0 to 100 scale),[4]; [12],95
same,"Plant response rating, Surinam Grass",[4]; [17],100
same,"Plant response rating, Bromegrass, Downy",[5]; [16],10
same,"Bromegrass, Downy plant response rating (0 to 100 scale)",[5]; [12],10
same,"Plant response rating, Bromegrass, Downy",[5]; [18],35
same,"Plant response rating, Bromegrass, Downy",[5]; [17],50
same,"Plant response rating, Ragweed",[6]; [16],80
same,Ragweed plant response rating (0 to 100 scale),[6]; [12],90
same,"Plant response rating, Ragweed",[6]; [17],98
same,"Plant response rating, Cocklebur",[7]; [16],85
same,Cocklebur plant response rating (0 to 100 scale),[7]; [12],95
same,"Plant response rating, Cocklebur",[7]; [18],95
same,"Plant response rating, Cocklebur",[7]; [17],98
same,"Plant response rating, Wheat",[8]; [16],5
same,Wheat plant response rating (0 to 100 scale),[8]; [12],35
same,"Plant response rating, Wheat",[8]; [17],45
same,"Plant response rating, Cupgrass, Woolly",[9]; [16],75
same,"Cupgrass, Woolly plant response rating (0 to 100 scale)",[9]; [12],85
same,"Plant response rating, Cupgrass, Woolly",[9]; [18],95
same,"Plant response rating, Cupgrass, Woolly",[9]; [17],95
same,"Plant response rating, Kochia",kochia (Kochia scoparia); [16],75
same,Kochia plant response rating (0 to 100 scale),kochia (Kochia scoparia); [12],85
same,"Plant response rating, Kochia",kochia (Kochia scoparia); [17],98
same,"Plant response rating, Blackgrass",[10]; [16],15
same,Blackgrass plant response rating (0 to 100 scale),[10]; [12],30
same,"Plant response rating, Blackgrass",[10]; [18],45
same,"Plant response rating, Blackgrass",[10]; [17],55
same,"Plant response rating, Crabgrass, Large",[11]; [16],85
same,"Crabgrass, Large plant response rating (0 to 100 scale)",[11]; [12],98
same,"Plant response rating, Crabgrass, Large",[11]; [18],98
same,"Plant response rating, Crabgrass, Large",[11]; [17],98
